Measurements reported in patent publication US20190257816A1, “DIFFERENTIAL BH3 MITOCHONDRIAL PROFILING” (Eutropics Pharmaceuticals, Inc., priority 2013, published 2019).
Values joined by “and” are separate entries in the source; they are usually repeats but may differ in a detail not shown here. Identical values can stand only once. Blank lines part the entries; values can stand above or below the molecule they belong to. Where no end group is shown, it is not given here.

How the values were obtained:
[1] = system: NCI-H929; test: MTS viability assay, NCI-H929; type: cell-based; details: Homo sapiens; NCI-H929, 48 hours
Description: (§1) The mitochondrial profiling assay was carried out in three steps: (1) cell preparation and counting, (2) cell permeabilization and peptide treatment, and (3) fluorescent readout (FIG. 1). Cells are suspended in Mitochondria loading Buffer with 0.005% digitonin, loaded with the cationic dye JC-1 (1 μM), and treated with 100 μM of one of the BH3 domain peptides: Bim, Bad, Noxa, and Puma. MOMP is followed by full mitochondrial membrane depolarization (ΔΨm), which is measured by treating the cells with the ionophore FCCP (p-trifluoromethoxy carbonyl cyanide phenyl hydrazone). Peptide (and FCCP) addition results in a decrease in membrane potential in suitably primed cells and is measured as a decrease in JC-1 fluorescence in a 384 well plate on a TecanGenios plate reader using an excitation of 535 nm and an emission of 590 nm.
(§2) Tables 3 and 4 show the percent priming of various cell lines, as determined by measuring the signal intensity of the JC-1 dye which is an indicator of mitochondrial depolarization. […] Viability was measured using an MTS assay. The IC50 is in μM.

[2] = system: Bcl-2 1863; test: MTS viability assay, Bcl-2 1863; type: cell-based; details: Bcl-2 primed cells (Bcl-2 1863)
[3] = system: Mcl-1 1780; test: MTS viability assay, Mcl-1 1780; type: cell-based; details: for IC50: Mcl1-1780, Mcl-1 1780, 48 hours
Description: as §1, §2

[4] = system: DHL10; test: MTS viability assay, DHL10; type: cell-based; details: for IC50: DHL10 (Bax/Bak deficient), 48 hours
Description: as §1, §2

[5] = system: DHL6; test: MTS viability assay, DHL6; type: cell-based; details: DHL6, 48 hours
Description: as §1, §2

[6] = system: LPN3; test: MTS viability assay, LPN3; type: cell-based; details: LPN3, 48 hours
Description: as §1, §2

[7] = system: OPM2/Luciferase cells; test: Tumor burden by bioluminescence imaging in xenografted mice; type: in vivo; details: OPM2/Luciferase xenograft in SCID mice, velcade 1 mpk IV 3×/week, compared with vehicle-only
Description: Mice were injected with 75 mg/kg D-luciferin, anesthetized, and imaged 10 minutes after substrate injection. Total body luminescence was determined using a standardized region of interest encompassing the entire mouse using the Living Images software package (Caliper Life Sciences).
OPM2/Luciferase cells were transferred to SCID mice and allowed to reach tumor burden. Xenografted mice were treated with EU-5148 (20 mpk IV, 3×/week), velcade for (1 mpk IV, 3×/week), or a combination of these treatments. […] The combination treatment of EU-5148 with Velcade results in 92% reduction in tumor cell burden over same time period.

[8] = system: multiple myeloma; test: Patient M-protein (M-spike) response to Velcade/Bortezomib treatment; type: in vivo, human; design: key to Δ M-Spike: % decrease in M-protein over treatment period; details: for Δ M-Spike: Velcade/Bortezomib combination regimen
Description: To date, we have obtained Mitochondrial profiles from 14 multiple myeloma or plasma cell leukemia patients. Each of the samples tested came from patients treated with one of several different Velcade/Bortezomib combination regimens. The samples listed in Table 5 are viably frozen from a tissue bank or from fresh bone marrow delivered within a few hours of the biopsy. CD138 cells are purified from either source using two similar procedures that have been optimized for each respective tissue type. Profiles on frozen cells are performed immediately following purification. Profiles on fresh cells are performed immediately or on viably frozen CD138 positive cells. […] M-protein is an indication of myeloma activity and is widely used diagnostic marker of the severity of the disease. The patient M-protein response is converted to a percentage of the best response seen among the group of patients tested. The M-spike response is calculated as a percent decrease in M-protein over a given treatment period. […] The percent decrease is calculated with the following equation. The percent best response is used to normalize the data to a fixed scale where 100% is the best response and 0% is the worst response. It is calculated with the equation below. Cancer cells collected from a patient undergoing Velcade based treatment were mitochondrial profiled at three time points during the course of treatment (October 2010, January 2011, and May 2011). The profile was used to monitor the apoptotic predisposition of the CD-138 positive MM cells during treatment.

[9] = system: NCI-H929; test: Mitochondrial profiling assay (JC-1), NCI-H929; type: cell-based; details: NCI-H929, percent priming, JC-1, 100 μM peptide
Description: as §1, §2

[10] = system: Mcl-1 1780; test: Mitochondrial profiling assay (JC-1), Mcl-1 1780; type: cell-based; details: Mcl-1 1780, percent priming, JC-1, 100 μM peptide
Description: as §1, §2

[11] = system: DHL6; test: Mitochondrial profiling assay (JC-1), DHL6; type: cell-based; details: DHL6, percent priming, JC-1, 100 μM peptide
Description: as §1, §2

[12] = system: LPN3; test: Mitochondrial profiling assay (JC-1), LPN3; type: cell-based; details: LPN3, percent priming, JC-1, 100 μM peptide
Description: as §1, §2

[13] = biological target: BCL-2 (Homo sapiens, UniProt P10415); test: BH3 domain binding affinities to BCL-2
[14] = biological target: BCL-XL (Homo sapiens, UniProt Q07817); test: BH3 domain binding affinities to BCL-XL
Chain of BCL-XL (Q07817 whole entry, the tested form may be a part): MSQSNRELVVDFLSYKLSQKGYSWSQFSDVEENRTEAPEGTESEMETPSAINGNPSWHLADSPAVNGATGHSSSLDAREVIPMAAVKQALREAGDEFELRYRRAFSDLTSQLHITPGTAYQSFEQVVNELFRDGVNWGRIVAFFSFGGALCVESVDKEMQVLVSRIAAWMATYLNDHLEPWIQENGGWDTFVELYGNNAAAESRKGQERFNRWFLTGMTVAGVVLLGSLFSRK

Chain of BCL-2 (P10415 whole entry, the tested form may be a part): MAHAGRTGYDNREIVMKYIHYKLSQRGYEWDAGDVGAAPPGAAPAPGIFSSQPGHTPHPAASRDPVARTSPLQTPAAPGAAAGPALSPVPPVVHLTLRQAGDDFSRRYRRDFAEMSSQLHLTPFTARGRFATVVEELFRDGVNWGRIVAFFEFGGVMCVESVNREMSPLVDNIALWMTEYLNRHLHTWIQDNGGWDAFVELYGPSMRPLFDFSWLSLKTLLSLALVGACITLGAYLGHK

IC50 [1]: 4000 nM
Molecule: CC1(C)CCC(c2ccc(Cl)cc2)=C(CN2CCN(c3ccc(C(=O)NS(=O)(=O)c4ccc(N[C@H](CCN5CCOCC5)CSc5ccccc5)c(S(=O)(=O)C(F)(F)F)c4)cc3)CC2)C1 [ABT-263, Navitoclax]
cell-killing activity (in words) [2]: effective
IC50 [3]: 17000 nM
cell-killing activity (in words) ([3]; Mcl-1 primed cells (Mcl-1 1780)): ineffective
IC50 [4]: > 25000 nM
cell-killing activity (in words) ([4]; DHL-10 cells deficient in the Bax-Bak proteins): not responsive
IC50 [5]: < 1000 nM
IC50 [6]: 4100 nM

IC50 [1]: 1000 nM
Molecule: COC1=CC(c2cc3ccccc3[nH]2)=N/C1=C\c1[nH]c(C)cc1C [Obatoclax]
IC50 [3]: 1500 nM
IC50 [4]: 800 nM
IC50 [5]: 1200 nM

Molecule: CC(C)C[C@H](NC(=O)[C@H](Cc1ccccc1)NC(=O)c1cnccn1)B(O)O [Velcade, Bortezomib]
mean tumor burden reduction (in words) [7]: mean tumor burden reduction was observed
Δ M-Spike ([8]; Patient No. 3039T): 64.71
Δ M-Spike ([8]; Patient No. 3098T): 62.50
Δ M-Spike ([8]; Patient No. 3161T): 12.90
Δ M-Spike ([8]; Patient No. 3187T): 65.22
Δ M-Spike ([8]; Patient No. 3188T): 93.03
Δ M-Spike ([8]; Patient No. 3191T): 57.69
Δ M-Spike ([8]; Patient No. 3201T): 87.50
Δ M-Spike ([8]; Patient No. 3213T): −10.00
Δ M-Spike ([8]; Patient No. 3221T): 52.38
M-Spike ([8]; TB# 3098T2, Jan. 27, 2011, patient undergoing Velcade based treatment): 0.8 g/dL
M-Spike ([8]; TB# 3098T3, May 5, 2011, patient undergoing Velcade based treatment): 0.3 g/dL
M-Spike ([8]; TB# 3098T, Oct. 13, 2010, patient undergoing Velcade based treatment): 1.7 g/dL

Molecule: AELPPEFAAQLRKIGDKVYC [NOXA BH3, BH3 domain peptide]
Mcl-1 Priming State (NOXA Signal) [9]: 74 (HIGH) %
Mcl-1 Priming State (NOXA Signal) [10]: 75 (HIGH) % and 71 (HIGH) %
Mcl-1 Priming State (NOXA Signal) [11]: 18 (LOW) %
Mcl-1 Priming State (NOXA Signal) [12]: 58 (HIGH) %

Kd [13]: 11 nM
Kd [14]: < 10 nM
Molecule: NLWAAQRYGRELRRMSDEFVDSFK [BAD BH3]
